From ChEMBL document CHEMBL3774389, “C-3 benzoic acid derivatives of C-3 deoxybetulinic acid and deoxybetulin as HIV-1 maturation inhibitors” (Bioorg Med Chem, 2016)

How the values were obtained:
[1] = tested on: Human immunodeficiency virus 1; assay: Antiviral activity against wild type HIV1 NLRepRlucP373S infected in human MT2 cells after 4 to 5 days by luciferase report gene based multiple cycle drug susceptibility assay; assay type: functional, organism-based; conditions: Human immunodeficiency virus 1, NLRepRlucP373S
[2] = tested on: Human immunodeficiency virus 1; assay: Antiviral activity against wild type HIV1 NLRepRlucP373S infected in human MT2 cells after 4 to 5 days in presence of 15 mg/ml HSA by luciferase report gene based multiple cycle drug susceptibility assay; assay type: functional, organism-based; conditions: Human immunodeficiency virus 1, NLRepRlucP373S
[3] = tested on: Human immunodeficiency virus 1; assay: Ratio of EC50 for HIV1 NLRepRlucP373S infected in human MT2 cells in presence of HSA to EC50 for HIV1 NLRepRlucP373S infected in human MT2 cells in absence of HSA; assay type: functional
[4] = tested on: Human immunodeficiency virus 1; assay: Antiviral activity against HIV1 containing gag V370A mutant infected in human MT2 cells after 4 to 5 days by luciferase report gene based multiple cycle drug susceptibility assay; assay type: functional, organism-based; conditions: Human immunodeficiency virus 1, MT2
[5] = Cytotoxicity against human MT2 cells assessed as cell viability by redox dye assay; assay type: cell-based
[6] = Half life in human liver microsomes at 0.5 uM by LC-MS/MS analysis in presence of NADPH; assay type: ADME
[7] = Half life in rat liver microsomes at 0.5 uM by LC-MS/MS analysis in presence of NADPH; assay type: ADME
[8] = Oral bioavailability in rat at 5 mg/kg by LC-MS/MS; assay type: ADME, organism-based; conditions: in vivo
[9] = AUC(0 to 6 hrs) in rat at 5 mg/kg, po by LC-MS/MS; assay type: ADME, organism-based; parameters: time < 6 hr, dose 5 mg/kg, route oral; conditions: in vivo
[10] = Cmax in rat at 5 mg/kg, po by LC-MS/MS; assay type: ADME, organism-based; parameters: dose 5 mg/kg, route oral; conditions: in vivo
[11] = Tmax in rat at 5 mg/kg, po by LC-MS/MS; assay type: ADME, organism-based; conditions: in vivo
[12] = Clearance in cannula implanted rat at 1 mg/kg, iv by LC-MS/MS; assay type: ADME, organism-based; conditions: in vivo
[13] = Volume of distribution in steady state in cannula implanted rat at 1 mg/kg, iv by LC-MS/MS; assay type: ADME, organism-based; conditions: in vivo, read-out: Vdss
[14] = Solubility of the compound; assay type: physicochemical
[15] = Protein binding of the compound in plasma (unknown origin); assay type: ADME, cell-free; conditions: read-out: PB
[16] = tested on: HEK-293T; assay: Binding affinity to HIV1 Gag polyprotein assessed as protease-mediated p25-Spacer peptide 1 cleavage in HEK293T cells by measuring […] ratio at 2 uM by Western blot analysis; assay type: cell-based; conditions: Human immunodeficiency virus 1
[17] = Displacement of [3H]-dihydro-bevirimat from HIV1 Gag polyprotein virus like particles after 3 hrs; parameters: species or system Human immunodeficiency virus 1
[18] = tested on: Human immunodeficiency virus 1; assay: Antiviral activity against wild type HIV1 NLRepRlucP373S infected in human MT2 cells after 4 to 5 days in presence of 27 mg/ml HSA by luciferase report gene based multiple cycle drug susceptibility assay; assay type: functional, organism-based; conditions: Human immunodeficiency virus 1, NLRepRlucP373S

SMILES | EC50 [1] [nM] | EC50 [2] [nM] | Ratio EC50 [3] | EC50 [4] [nM] | CC50 [5] [nM] | half-life at 0.5 µM [6] [h] | half-life at 0.5 µM [7] [h] | bioavailability [8] [%] | AUC(0-t) at 6 h [9] [µM·h] | Cmax [10] [nM] | Tmax [11] [h] | clearance [12] [mL/min/kg] | Vd [13] [L/kg] | solubility [14] | fraction unbound [15] | Ratio [16] | IC50 [17] [nM] | EC50 [18] [nM]
C=C(C)[C@@H]1CC[C@]2(CO)CC[C@]3(C)[C@H](CC[C@@H]4[C@@]5(C)CC=C(c6ccc(C(=O)O)cc6)C(C)(C)[C@@H]5CC[C@]43C)[C@@H]12 | 11 | 27 | 2.5 | 212 | 9650 | 2 | 2 | 4 | 2.14 | 590 | 5 | 2.1 | 0.5 | Insoluble | – | – | – | –
C=C(C)[C@@H]1CC[C@]2(C(=O)O)CC[C@]3(C)[C@H](CC[C@@H]4[C@@]5(C)CC[C@H](OC(=O)CC(C)(C)C(=O)O)C(C)(C)[C@@H]5CC[C@]43C)[C@@H]12 [BEVIRIMAT] | – | – | – | – | – | – | – | 18 | – | 2590 | 0.3 | 4 | – | – | < 0.001 | – | – | –
C=C(C)[C@@H]1CC[C@]2(C(=O)O)CC[C@]3(C)[C@H](CC[C@@H]4[C@@]5(C)CC=C(c6ccc(C(=O)O)cc6)C(C)(C)[C@@H]5CC[C@]43C)[C@@H]12 | – | – | – | – | 27200 | 2 | 2 | 4 | 5.72 | 1310 | 4 | 1 | 0.2 | Insoluble | – | 1.6 | 27 | 310
